According to patent publication US8420670B2 (Abbott Laboratories, priority 2007, dated 2013):
Where a name gives a salt, the structure may show the parent alone.

What was measured:
human GlyT1c transporter = molecular target: T1, human GlyT1c transporter (Homo sapiens, UniProt P48067); test: [3H]-(R)-NPTS radioligand binding assay using recombinant hGlyT1 expressing cell membranes; conditions: 0.5 nM [3H]-(R)-NPTS, apparent Ki via Cheng-Prusoff, read-out: [3H]-(R)-NPTS bindung Ki
T1 construct: expressed in transfected cells; host or cells: recombinant hGlyT1-expressing cells
T1 sequence (P48067 1-706): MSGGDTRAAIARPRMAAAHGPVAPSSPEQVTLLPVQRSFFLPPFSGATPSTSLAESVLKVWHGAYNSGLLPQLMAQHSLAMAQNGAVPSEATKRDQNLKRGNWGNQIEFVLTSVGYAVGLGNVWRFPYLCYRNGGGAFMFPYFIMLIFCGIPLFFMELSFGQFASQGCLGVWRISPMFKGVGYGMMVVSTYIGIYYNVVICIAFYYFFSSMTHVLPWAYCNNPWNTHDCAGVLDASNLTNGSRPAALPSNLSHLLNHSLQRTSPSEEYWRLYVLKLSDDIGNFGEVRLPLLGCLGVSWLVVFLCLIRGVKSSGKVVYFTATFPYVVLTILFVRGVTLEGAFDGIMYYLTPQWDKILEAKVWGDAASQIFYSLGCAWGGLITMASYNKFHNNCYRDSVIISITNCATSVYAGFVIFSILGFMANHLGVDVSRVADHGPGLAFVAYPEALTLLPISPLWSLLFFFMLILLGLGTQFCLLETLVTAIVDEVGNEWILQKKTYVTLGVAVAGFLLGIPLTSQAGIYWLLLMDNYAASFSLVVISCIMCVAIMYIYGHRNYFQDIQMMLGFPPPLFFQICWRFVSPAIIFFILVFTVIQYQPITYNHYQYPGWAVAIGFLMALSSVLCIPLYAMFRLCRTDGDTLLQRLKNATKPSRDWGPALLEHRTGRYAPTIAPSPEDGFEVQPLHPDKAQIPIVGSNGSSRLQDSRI
Experimental: 2. [^3H]-(R)-NPTS Radioligand Binding Assays using Recombinant hGlyT1 Expressing Cell Membranes:
Radioligand binding to human GlyT1c transporter-expressing membranes was measured in duplicate in a total volume of 200 μl in 96-well plates. To 100 μl of membrane suspension (yielding a final membrane protein concentration of 50 μg/ml) in assay buffer (120 mM NaCl, 2 mM KCl, 10 mM Hepes, 1 mM MgCl2, 1 mM CaCl2, pH 7.5) […] of [^3H]-(R)NPTS (0.5 nM final) were added in assay buffer. For competition experiments 10 μl of buffer or unlabeled compound solution obtained from dilution series of test compounds in DMSO followed. An intermediate 1:10 dilution in assay buffer yielded a final DMSO concentration of 1%. Non-specific binding was determined in the presence of 10 μM Org24598 (or its racemate Org24461) for [^3H]-(R)-NPTS. After incubation at room temperature for 1 h, the incubation mixture was harvested (Tomtec Mach III U Harvester) through 96-well GF/B filter plates (PerkinElmer), presoaked for 1 h with 40 μl per well of 0.1% polyethylene-imine (PEI). After washing twice with ice-cold 50 mM Tris-HCl pH 7.4 buffer, drying and addition of 35 μl scintillator (BetaplateScint, PerkinElmer) per well followed. The radioactivity was determined by liquid scintillation spectrometry in a MicroBeta (PerkinElmer) plate counter.
Data analysis: For binding of [^3H]-(R)-NPTS to cell membranes, the calculation of Kd and Bmax values from the saturation binding assays and the IC50 values from the displacement binding was performed by iterative non-linear regression analysis adapted from the ‘Ligand’ program (Munson and Rodbard, 1980). Radioligand displacement curves in absence or in presence of increasing concentrations of tested compounds were fitted using a one-site fit and the apparent Ki values were calculated from the IC50 values using the Cheng-Prusoff equation (Cheng and Prusoff 1973).

Human GlyT1c = molecular target: T2, Human GlyT1c (Homo sapiens, UniProt P48067); test: Glycine uptake in recombinant hGlyT1 expressing cells; assay type: cell-based; conditions: hGlyT1c_5_CHO cells; [3H]-glycine uptake, 60-120 min
T2 construct: expressed in transfected cells; host or cells: CHO (hGlyT1c_5_CHO clone)
T2 sequence (P48067 1-706): T1 sequence (P48067 1-706)
Experimental: 1. Glycine Uptake in Recombinant hGlyT1 Expressing Cells:
Human GlyT1c expressing recombinant hGlyT1c—5_CHO cells were plated at 20,000 cells per well in 96 well Cytostar-T scintillation microplates (Amersham Biosciences) and cultured to sub-confluency for 24 h. For glycine uptake assays the culture medium was aspirated and the cells were washed once with 100 μl HBSS (Gibco BRL, #14025-050) with 5 mM L-Alanine (Merck #1007). 80 μl HBSS buffer were added, followed by 10 μl inhibitor or vehicle (10% DMSO) and 10 μl [^3H]-glycine (TRK71, Amersham Biosciences) to a final concentration of […] for initiation of glycine uptake. The plates were placed in a Wallac Microbeta (PerkinElmer) and continuously counted by solid phase scintillation spectrometry during up to 3 hours. Nonspecific uptake was determined in the presence of 10 μM Org24598. IC50 calculations were made by four-parametric logistic nonlinear regression analysis (GraphPad Prism) using determinations within the range of linear increase of [^3H]-glycine incorporation between 60 and 120 min.

Compound	Ki (human GlyT1c transporter) [µM]	IC50 (Human GlyT1c) [µM]
COc1cccc2c(NC(CN(C)C)c3ccc(Cl)cc3)cc(C)nc12 (racemic) [Example 68, (rac)-1-(4-Chlorophenyl)-N*1*-(8-methoxy-2-methylquinolin-4-yl)-N*2*,N*2*-dimethylethane-1,2-diamine dihydrochloride]	≤ 0.01	≤ 0.1
Cc1cc(NCc2ccc(Cl)c(Cl)c2)c2cccc(S(=O)(=O)N(C)C)c2n1 [Example 1, 4-(3,4-Dichlorobenzylamino)-2-methylquinoline-8-sulfonic dimethylamide]	≤ 1	≤ 10
Cc1cc(NCc2ccc(Cl)c(Cl)c2)c2cccc(S(N)(=O)=O)c2n1 [Example 2, 4-(3,4-Dichlorobenzylamino)-2-methylquinoline-8-sulfonamide]	≤ 1	≤ 1000
Cc1cc(NCc2ccc(Cl)c(Cl)c2)c2cccc(S(=O)(=O)NC(C)C)c2n1 [Example 3, 4-(3,4-Dichlorobenzylamino)-2-methyl-quinoline-8-sulfonic isopropylamide]	≤ 1	≤ 10
Cc1cc(NCc2ccc(Cl)c(Cl)c2)c2cccc(S(=O)(=O)Nc3ccc(Cl)cc3)c2n1 [Example 4, 4-(3,4-Dichlorobenzylamino)-2-methylquinoline-8-sulfonic (4-chlorophenyl)-amide]	≤ 1	≤ 100
Cc1cc(NCc2ccc(Cl)c(Cl)c2)c2cccc(N)c2n1 [Example 5, N*4*-(3,4-Dichlorobenzyl)-2-methylquinoline-4,8-diamine]	≤ 0.1	≤ 0.1
Cc1cc(NCc2ccc(Cl)c(Cl)c2)c2cccc(N3CCOCC3)c2n1 [Example 6, (3,4-Dichlorobenzyl)-(2-methyl-8-morpholin-4-yl-quinolin-4-yl)-amine hydrobromide]	≤ 0.1	≤ 1
Cc1cc(NCc2ccc(Cl)c(Cl)c2)c2cccc(N3CCCC3)c2n1 [Example 7, (3,4-Dichlorobenzyl)-(2-methyl-8-pyrrolidin-1-yl-quinolin-4-yl)-amine hydrochloride]	≤ 1	≤ 1
Cc1cc(NCc2ccc(Cl)c(Cl)c2)c2cccc(NS(=O)(=O)c3ccccc3)c2n1 [Example 8, N-[4-(3,4-Dichlorobenzylamino)-2-methylquinolin-8-yl]-phenylsulfonamide]	≤ 1	≤ 10
CCNc1cccc2c(NCc3ccc(Cl)c(Cl)c3)cc(C)nc12 [Example 9, N*4*-(3,4-Dichlorobenzyl)-N*8*-ethyl-2-methylquinolin-4,8-diamine]	≤ 0.1	≤ 1
Cc1cc(NCc2ccc(Cl)c(Cl)c2)c2cccc(NC(=O)c3ccccc3)c2n1 [Example 10, N-[4-(3,4-Dichlorobenzylamino)-2-methylquinolin-8-yl]-benzamide]	≤ 1	≤ 100
Cc1cc(NCc2ccc(Cl)c(Cl)c2)c2cccc(N(S(C)(=O)=O)S(C)(=O)=O)c2n1 [Example 11, N-[4-(3,4-Dichlorobenzylamino)-2-methylquinolin-8-yl]-bis-methanesulfonamide]	≤ 10	≤ 100
Cc1cc(NCc2ccc(Cl)c(Cl)c2)c2cccc(NS(C)(=O)=O)c2n1 [Example 12, N-[4-(3,4-Dichlorobenzylamino)-2-methylquinolin-8-yl]-methanesulfonamide]	≤ 1	≤ 10
CC(=O)Nc1cccc2c(NCc3ccc(Cl)c(Cl)c3)cc(C)nc12 [Example 13, N-[4-(3,4-Dichlorobenzylamino)-2-methylquinolin-8-yl]-acetamide]	≤ 1	≤ 1
Cc1cc(NCc2ccc(Cl)c(Cl)c2)c2cccc(NC(=O)C(C)C)c2n1 [Example 14, N-[4-(3,4-Dichlorobenzylamino)-2-methylquinolin-8-yl]-isobutyramide]	≤ 10	≤ 10
CNc1cccc2c(NCc3ccc(Cl)c(Cl)c3)cc(C)nc12 [Example 15, N*4*-(3,4-Dichlorobenzyl)-N*8*-methyl-2-methylquinolin-4,8-diamine]	≤ 0.1	≤ 1
Cc1cc(NCc2ccc(Cl)c(Cl)c2)c2cccc(N(C)C)c2n1 [Example 16, N*4*-(3,4-Dichlorobenzyl)-N*8*-dimethyl-2-methylquinolin-4,8-diamine hydrochloride]	≤ 0.1	≤ 1
Cc1ccc(S(=O)(=O)N2CCN(c3cccc4c(NCc5ccc(Cl)c(Cl)c5)cc(C)nc34)CC2)cc1 [Example 17, (3,4-Dichlorobenzyl)-{2-methyl-8-[4-(toluene-4-sulfonyl)-piperazin-1-yl]-quinolin-4-yl}-amine]	≤ 1	≤ 10
Cc1cc(NCc2ccc(Cl)c(Cl)c2)c2cccc(N3CCNCC3)c2n1 [Example 18, (3,4-Dichlorobenzyl)-(2-methyl-8-piperazin-1-yl-quinolin-4-yl)-amine dihydrochloride]	≤ 0.1	≤ 1
Cc1cc(NCc2ccc(Cl)c(Cl)c2)c2cccc(OCCNC(=O)OC(C)(C)C)c2n1 [Example 19, {2-[4-(3,4-Dichlorobenzylamino)-2-methylquinolin-8-yloxy]-ethyl}-carbamate tert-butyl ester]	≤ 0.1	≤ 0.1
Cc1cc(NCc2ccc(Cl)c(Cl)c2)c2cccc(OCCN)c2n1 [Example 20, [8-(2-Aminoethoxy)-2-methylquinolin-4-yl]-(3,4-dichlorobenzyl)-amine dihydrochloride]	≤ 0.01	≤ 1
Cc1cc(NCc2ccc(Cl)c(Cl)c2)c2cccc(OCCNS(C)(=O)=O)c2n1 [Example 21]	≤ 0.01	≤ 0.1
Cc1cc(NCc2ccc(Cl)c(Cl)c2)c2cccc(OCCNC(=O)c3ccccc3)c2n1 [Example 22]	≤ 0.01	≤ 0.1
Cc1cc(NCc2ccc(Cl)c(Cl)c2)c2cccc(OCCNS(=O)(=O)c3ccccc3)c2n1 [Example 23, hydrochloride]	≤ 0.01	≤ 1
CC(=O)NCCOc1cccc2c(NCc3ccc(Cl)c(Cl)c3)cc(C)nc12 [Example 24, N-{2-[4-(3,4-Dichlorobenzylamino)-2-methylquinolin-8-yloxy]-ethyl}-acetamide]	≤ 0.1	≤ 1
Cc1cc(NCc2ccc(Cl)c(Cl)c2)c2cccc(OCCNC(=O)C(C)C)c2n1 [Example 26, N-{2-[4-(3,4-Dichlorobenzylamino)-2-methylquinolin-8-yloxy]-ethyl}-isobutyramide]	≤ 1	≤ 1
CCS(=O)(=O)NCCOc1cccc2c(NCc3ccc(Cl)c(Cl)c3)cc(C)nc12 [Example 27, Ethanesulfonic {2-[4-(3,4-Dichloro-benzylamino)-2-methylquinolin-8-yloxy]-ethyl}-amide]	≤ 0.01	≤ 0.01
